Results as given in the supplement of paper PMC4862054.

Assays:
MDA-MB-468 [1] = assay: drug sensitivity score (DSS), CellTiter-Blue viability (DSS (AUC-based score)); higher = stronger viability inhibition; extreme values may be limits of the assay; settings: incubation time: 72 h
Procedure: (§1)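 DSRT with the CellTiter-Blue (resazurin reduction) viability readout, fluorescence 560/590 nm, 72 h incubation. Plates were normalised to DMSO and benzethonium chloride controls. DSS is computed from the area under the fitted dose-response curve (5 or 9 concentrations).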

BT-474 [2] = assay: as above; settings: incubation time: 72 h
Procedure: as §1

CAL-120 [3] = assay: as above; settings: incubation time: 72 h
Procedure: as §1

CAL-148 = assay: as above; settings: incubation time: 72 h
Procedure: as §1

CAL-51 = assay: as above; settings: incubation time: 72 h
Procedure: as §1

CAL-85-1 [4] = assay: as above; settings: incubation time: 72 h
Procedure: as §1

DU-4475 [5] = assay: as above; settings: incubation time: 72 h
Procedure: as §1

HCC1937 = assay: as above; settings: incubation time: 72 h
Procedure: as §1

HCC1143 = assay: as above; settings: incubation time: 72 h
Procedure: as §1

HCC1599 [6] = assay: as above; settings: incubation time: 72 h
Procedure: as §1

MDA-MB-231 [7] = assay: as above; settings: incubation time: 72 h
Procedure: as §1

MDA-MB-453 [8] = assay: as above; settings: incubation time: 72 h
Procedure: as §1

MFM-223 [9] = assay: as above; settings: incubation time: 72 h
Procedure: as §1

Hs578T [10] = assay: as above; settings: incubation time: 72 h
Procedure: as §1

HDQ-P1 = assay: as above; settings: incubation time: 72 h
Procedure: as §1

MDA-MB-468 [11] = assay: normalised viability (% of control), CellTiter-Blue; higher = more viable cells (about 100 = DMSO control); settings: 100 nM; incubation time: 72 h
Procedure, shortened: (§2)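 After 72 h on compound-loaded 384-well plates, breast cancer cell lines received 2.5 µl CellTiter-Blue reagent for 2 h at 37 °C. Fluorescence at 560/590 nm was scaled per plate so that vehicle was 100 and a positive kill control was 0. The value stands for normalised viability at a single listed concentration of the series.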

BT-474 [12] = assay: as above; settings: 100 nM; incubation time: 72 h
Procedure, shortened: as §2

CAL-120 [13] = assay: as above; settings: 100 nM; incubation time: 72 h
Procedure, shortened: as §2

CAL-85-1 [14] = assay: as above; settings: 10 nM; incubation time: 72 h
Procedure, shortened: as §2

DU-4475 [15] = assay: as above; settings: 10 nM; incubation time: 72 h
Procedure, shortened: as §2

SK-BR-3 = assay: as above; settings: 100 nM; incubation time: 72 h
Procedure, shortened: as §2

BT-549 = assay: as above; settings: 100 nM; incubation time: 72 h
Procedure, shortened: as §2

HCC1599 [16] = assay: as above; settings: 100 nM; incubation time: 72 h
Procedure, shortened: as §2

MDA-MB-231 [17] = assay: as above; settings: 100 nM; incubation time: 72 h
Procedure, shortened: as §2

MDA-MB-453 [18] = assay: as above; settings: 10 nM; incubation time: 72 h
Procedure, shortened: as §2

MDA-MB-436 = assay: as above; settings: 100 nM; incubation time: 72 h
Procedure, shortened: as §2

MFM-223 [19] = assay: as above; settings: 100 nM; incubation time: 72 h
Procedure, shortened: as §2

Hs578T [20] = assay: as above; settings: 100 nM; incubation time: 72 h
Procedure, shortened: as §2

## NC(=O)c1ccc(I)c([N+](=O)[O-])c1 [Iniparib]
MDA-MB-468 [1]
  drug sensitivity score: 0
BT-474 [2]
  drug sensitivity score: 0
CAL-120 [3]
  drug sensitivity score: 1.19
CAL-148
  drug sensitivity score: 0
CAL-51
  drug sensitivity score: 0
CAL-85-1 [4]
  drug sensitivity score: 0
DU-4475 [5]
  drug sensitivity score: 0
HCC1937
  drug sensitivity score: 0
HCC1143
  drug sensitivity score: 0
HCC1599 [6]
  drug sensitivity score: 0
MDA-MB-231 [7]
  drug sensitivity score: 0
MDA-MB-453 [8]
  drug sensitivity score: 0
MFM-223 [9]
  drug sensitivity score: 0
Hs578T [10]
  drug sensitivity score: 0
HDQ-P1
  drug sensitivity score: 0
MDA-MB-468 [11]
  normalised viability: 96.7%
BT-474 [12]
  normalised viability: 94.6%
CAL-120 [13]
  normalised viability: 105%
CAL-85-1 [14]
  normalised viability: 87.6%
DU-4475 [15]
  normalised viability: 101%
SK-BR-3
  normalised viability: 72.4%
BT-549
  normalised viability: 106%
HCC1599 [16]
  normalised viability: 103%
MDA-MB-231 [17]
  normalised viability: 98.8%
MDA-MB-453 [18]
  normalised viability: 86.2%
MDA-MB-436
  normalised viability: 88.5%
MFM-223 [19]
  normalised viability: 92.4%
Hs578T [20]
  normalised viability: 91.8%
